Species: Rattus norvegicus
Assay: Convulsant activity in Sprague-Dawley rat assessed as partial pressure in atmosphere at which convulsion takes place
Format: functional

Row | SMILES | log(1/CON)
1 | FC(F)(Cl)OC(F)(Cl)C(F)(F)F (centres undefined) | 0.71
2 | CC(F)(F)C(F)(F)F | 0.02
3 | FC(F)(F)COC(F)(F)Cl | 1.63
4 | FC(F)(F)C(F)(Cl)C(F)(F)F | -0.26
5 | FC(F)OC(F)(Cl)C(F)(F)F (centres undefined) | 0.84
6 | FC(F)(F)C(F)(F)C(F)(F)C(F)(F)Br | 0.59
7 | FC(F)(Cl)C(F)(Cl)C(F)(Cl)C(F)(F)Cl (centres undefined) | 2.52
8 | FC(F)(Cl)C(F)(Cl)C(F)(F)Cl | 1.31
9 | FC(F)(Br)C(F)(F)C(F)(F)C(F)(F)Br | 1.86
10 | FC(F)C(F)(F)C(F)(F)C(F)(F)C(F)(F)C(F)(F)Br | 1.68
11 | FC(Cl)(Cl)OC(F)(F)C(F)(F)Cl | 1.36
12 | FCOC(F)(F)C(C(F)(F)F)C(F)(F)F | 1.43
13 | FC(F)(F)c1cc(C(F)(F)F)cc(C(F)(F)F)c1 | 1.85
14 | FC(C(F)C(F)(F)C(F)(F)C(F)(F)F)C(F)(F)F (centres undefined) | 2.31
15 | FC(F)(Cl)OC(F)(F)C(F)(F)Cl | 0.68
16 | FC(F)(Cl)OC(F)(F)C(F)(Cl)Cl | 1.52
17 | FC(F)(F)C(F)(Br)C(F)(F)F | 0.13
18 | FC(F)(F)C(F)(Cl)C(F)(Cl)C(F)(F)F (centres undefined) | 1.04
19 | COC(F)(F)C(F)(C(F)(F)F)C(F)(F)F | 0.67
20 | FC(F)(Cl)C(F)(Cl)Cl | 1.36
21 | Fc1ccc(F)cc1 | 2.22
22 | COC(F)(F)C(F)(F)C(F)(F)C(F)(F)F | 0.67

Row | SMILES | log(1/CON)
23 | FC(F)C(F)(F)C(F)(F)C(F)(F)F | 0.12
24 | FC1(F)C(F)(F)[C@@](F)(Cl)[C@@]1(F)Cl | 1.41
25 | FC(F)(F)C(F)(F)C(F)(F)Br | 0.03
26 | FC(F)(Cl)OC(Cl)(Cl)C(F)(F)F | 1.61
27 | FC(F)(F)COC(F)(F)F | 0.66
28 | FC(F)OC(F)(C(F)F)C(F)(F)F (centres undefined) | 1.25
29 | FC1(F)C(F)(F)C(F)(Cl)C1(F)Cl (racemic) | 1.26
30 | FC1(F)C(F)(F)[C@@](F)(Cl)[C@]1(F)Cl (relative stereo) | 1.19
31 | FC(F)(F)C(F)(F)Br [BROMOPENTAFLUOROETHANE] | 0.02
32 | FC(F)(F)C(F)(F)Cl [CHLOROPENTAFLUOROETHANE] | -0.32
33 | C1CCCCCC1 [CYCLOHEPTANE] | 2.34
34 | C1CCCCC1 [CYCLOHEXANE] | 1.66
35 | C1CCCCCCC1 [CYCLOOCTANE] | 2.82
36 | FC(F)(Br)Br [DIBROMODIFLUOROMETHANE] | 1.59
37 | FC(F)(Cl)C(F)(F)Cl [DICHLOROTETRAFLUOROETHANE] | 0.41
38 | FC(F)(F)COCC(F)(F)F [FLUROTHYL] | 2.81
39 | CCCCCCCCC [NONANE] | 2.8
40 | CCCCCCCC [OCTANE] | 2.18
41 | CCCCC [PENTANE] | 1.16
42 | FC1(F)C(F)(F)C(F)(F)C1(F)F [PERFLUOROCYCLOBUTANE] | 0.01
43 | Fc1c(F)c(F)c(C(F)(F)F)c(F)c1F [PERFLUOROTOLUENE] | 3.46
44 | FC(F)(F)C(F)(F)C(F)(F)F [PERFLUTREN] | -0.88

— ChEMBL document CHEMBL1153882, “Prediction of convulsant activity of gases and vapors” (2009)
